This experiment addresses T1, KRAS G12C (GMPPNP-loaded, Cys-light, amino acids 1-169) and cRAF Ras-binding domain interaction (Homo sapiens, UniProt P01116, C118S/C51S/C80L/G12C).
T1 construct: truncated version comprising amino acids 1-169
The experiment can be described thus: Inhibition of KRAS G12C and cRAF binding (AlphaScreen). To be noted: KRAS G12C preloaded with GMPPNP, 2 hours compound incubation, room temperature. On the procedure: The AlphaScreen technology was used to determine IC50s for compound inhibition of KRAS G12C (present as the Cys-light (C51S, C80L and C118S), truncated version comprising amino acids 1-169) and cRAF interaction. Compounds were diluted in 100% DMSO and each compound concentration was spotted at 200 nl/well onto low volume, white 384 well plates. The KRAS G12C contained a biotin-AviTag and the cRaf, as Ras-binding domain (amino acids 50-131, RBD), was GST-tagged. KRAS G12C was preloaded with the GTP analogue Guanosine 5′-[…] (GMPPNP). The KRAS G12C was diluted in 25 mM Hepes, pH 7.4, 150 mM NaCl, 5 mM MgCl2, 0.01% TritonX-100 and 10 μM GMPPNP and added at 10 ul/well to compound-spotted plates resulting in a DMSO concentration of 2%. Plates were incubated for 2 hours. A mixture of RBD and the AlphaScreen streptavidin donor and glutathione acceptor beads diluted in 25 mM Hepes, pH 7.4, 150 mM NaCl, 5 mM MgCl2, 0.01% TritonX-100 and 2% DMSO was then added at 10 ul/well and incubated for 60-90 minutes before the samples were read for emission at 570 nm after excitation of the donor beads at 680 nm. All incubations were performed at room temperature. The final top compound concentration was 50 μM with 1:3 titrations for 10-point dose response curves. Final assay conditions were 0.5 nM KRAS G12C, 0.75 nM RBD and 5 μg/ml each of AlphaScreen donor and acceptor beads. IC50s were determined using nonlinear regression fit of [inhibitor] vs. response (4 parameters).
A counter assay was also set up to rule out inhibitors of the AlphaScreen technology itself. Compound plates were incubated for 2 hours as above with buffer only. The AlphaScreen beads were added as above except biotin-AviTag-GST was substituted for the RBD. Samples were read and analyzed as above.

From patent publication US20260274867A1, “PYRIDO[4,3-D]PYRIMIDINE DERIVATIVES AS MUTANT KRAS G12C INHIBITORS FOR THE TREATMENT OF CANCER” (Frontier Medicines Corporation, priority 2023, published 2026) come the findings set out here.

T1 sequence (P01116 1-169 isoform P01116-2 G12C/C51S/C80L/C118S): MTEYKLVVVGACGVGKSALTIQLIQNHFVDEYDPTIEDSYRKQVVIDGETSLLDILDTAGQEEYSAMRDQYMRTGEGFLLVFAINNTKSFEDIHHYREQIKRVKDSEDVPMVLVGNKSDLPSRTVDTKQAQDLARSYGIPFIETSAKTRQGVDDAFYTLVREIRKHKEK

In general, IC50 refers to the midpoint of a concentration-inhibition curve. High values mean weaker potency, low ones greater potency. Consider `Cc1cc(/C=C(\F)C(=O)N2CCN(c3nc(OC[C@@]45CCCN4C[C@H](F)C5)nc4c(F)c(-c5cccc(Cl)c5C5CC5)ncc34)C[C@@H]2CC#N)nc(C)n1` [Compound 32, 2-((S)-4-(7-(3-chloro-2-cyclopropylphenyl)-8-fluoro-2-(((2R,7aS)-2-fluorotetrahydro-1H-pyrrolizin-7a(5H)-yl)methoxy)pyrido[4,3-d]pyrimidin-4-yl)-1-((Z)-3-(2,6-dimethylpyrimidin-4-yl)-2-fluoroacryloyl)piperazin-2-yl)acetonitrile], for which the IC50 was < 10 nM.
`Cc1nccc(/C=C(\F)C(=O)N2CCN(c3nc(OC[C@@]45CCCN4C[C@H](F)C5)nc4c(F)c(-c5cccc6cccc(F)c56)ncc34)C[C@@H]2CC#N)n1` [Compound 33]: the IC50 was < 10 nM.
In the case of `Cc1cc(/C=C(\F)C(=O)N2CCN(c3nc(OC[C@@]45CCCN4C[C@H](F)C5)nc4c(F)c(-c5cccc6ccc(F)c(C)c56)ncc34)C[C@@H]2CC#N)nc(C)n1` [Compound 34] it was < 10 nM.
`Cc1cc(/C=C(\F)C(=O)N2CCN(c3nc(OC[C@@]45CCCN4C[C@H](F)C5)nc4c(F)c(-c5cccc6ccc(F)c(Cl)c56)ncc34)C[C@@H]2CC#N)nc(C)n1` [Compound 35]: the IC50 is < 10 nM.
Regarding `Cc1nccc(/C=C(\F)C(=O)N2CC[C@H](O)[C@@H](N(C)c3nc(OC[C@@]45CCCN4C[C@H](F)C5)nc4c(F)c(-c5cccc6cccc(Cl)c56)ncc34)C2)n1` [Compound 36], the IC50 lay in the range of 100 to 500 nM.
In the case of `Cc1nccc(/C=C(\F)C(=O)N2CC[C@@H](N(C)c3nc(OC[C@@]45CCCN4C[C@H](F)C5)nc4c(F)c(-c5cccc6cccc(Cl)c56)ncc34)C2)n1` [Compound 37, (Z)-1-((R)-3-((7-(8-chloronaphthalen-1-yl)-8-fluoro-2-(((2R,7aS)-2-fluorotetrahydro-1H-pyrrolizin-7a(5H)-yl)methoxy)pyrido[4,3-d]pyrimidin-4-yl)(methyl)amino)pyrrolidin-1-yl)-2-fluoro-3-(2-methylpyrimidin-4-yl)prop-2-en-1-one], the IC50 is < 10 nM.
For `Cc1nccc(/C=C(\F)C(=O)N2CC[C@@H](N(C)c3nc(OC[C@@]45CCCN4C[C@H](F)C5)nc4c(F)c(-c5cccc6ccc(F)c(F)c56)ncc34)C2)n1` [Compound 38], the concentration for half-maximal inhibition (IC50) was < 10 nM.
As to `Cc1nccc(/C=C(\F)C(=O)N2CC[C@@H](N(C)c3nc(OC[C@@]45CCCN4C[C@H](F)C5)nc4c(F)c(-c5cccc(Cl)c5C5CC5)ncc34)C2)n1` [Compound 39], the 50% inhibitory concentration (IC50) was < 10 nM.
As for `Cc1nccc(/C=C(\F)C(=O)N2CC(CN(C)c3nc(OC[C@@]45CCCN4C[C@H](F)C5)nc4c(F)c(-c5cccc6cccc(Cl)c56)ncc34)C2)n1` [Compound 40], the IC50 was < 10 nM.
For the compound `Cc1cc(/C=C(\F)C(=O)N2CC[C@@H](N(C)c3nc(OC[C@@]45CCCN4C[C@H](F)C5)nc4c(F)c(-c5cccc6ccc(F)c(F)c56)ncc34)C2)nc(C)n1` [Compound 41, (Z)-1-((R)-3-((7-(7,8-difluoronaphthalen-1-yl)-8-fluoro-2-(((2R,7aS)-2-fluorotetrahydro-1H-pyrrolizin-7a(5H)-yl)methoxy)pyrido[4,3-d]pyrimidin-4-yl)(methyl)amino)pyrrolidin-1-yl)-3-(2,6-dimethylpyrimidin-4-yl)-2-fluoroprop-2-en-1-one], the half-maximal inhibitory concentration (IC50) is < 10 nM.
Take `C#Cc1c(F)ccc2cccc(-c3ncc4c(N(C)[C@@H]5CCN(C(=O)/C(F)=C/c6ccnc(C)n6)C5)nc(OC[C@@]56CCCN5C[C@H](F)C6)nc4c3F)c12` [Compound 42]: the IC50 was < 10 nM.
For the compound `Cc1nccc(/C=C(\F)C(=O)N2CC[C@@H](N(C)c3nc(OC[C@@]45CCCN4C[C@H](F)C5)nc4c(F)c(-c5cccc(Cl)c5C(F)(F)F)ncc34)C2)n1` [Compound 43], the IC50 was < 10 nM.
As for `C#Cc1c(F)ccc2cccc(-c3ncc4c(N(C)[C@@H]5CCN(C(=O)/C(F)=C/c6cc(C)nc(C)n6)C5)nc(OC[C@@]56CCCN5C[C@H](F)C6)nc4c3F)c12` [Compound 44, (Z)-3-(2,6-dimethylpyrimidin-4-yl)-1-((R)-3-((7-(8-ethynyl-7-fluoronaphthalen-1-yl)-8-fluoro-2-(((2R,7aS)-2-fluorotetrahydro-1H-pyrrolizin-7a(5H)-yl)methoxy)pyrido[4,3-d]pyrimidin-4-yl)(methyl)amino)pyrrolidin-1-yl)-2-fluoroprop-2-en-1-one], the IC50 was < 10 nM.
Take `CCc1c(F)ccc2cccc(-c3ncc4c(N(C)[C@@H]5CCN(C(=O)/C(F)=C/c6ccnc(C)n6)C5)nc(OC[C@@]56CCCN5C[C@H](F)C6)nc4c3F)c12` [Compound 45]: the half-inhibitory concentration (IC50) is < 10 nM.
As for `Cc1cc(/C=C(\F)C(=O)N2CC[C@@H](N(C)c3nc(OC[C@@]45CCCN4C[C@H](F)C5)nc4c(F)c(-c5cccc(Cl)c5C5CC5)ncc34)C2)nc(C)n1` [Compound 46, (Z)-1-((R)-3-((7-(3-chloro-2-cyclopropylphenyl)-8-fluoro-2-(((2R,7aS)-2-fluorotetrahydro-1H-pyrrolizin-7a(5H)-yl)methoxy)pyrido[4,3-d]pyrimidin-4-yl)(methyl)amino)pyrrolidin-1-yl)-3-(2,6-dimethylpyrimidin-4-yl)-2-fluoroprop-2-en-1-one], the IC50 is < 10 nM.
As for `Cc1cc(/C=C(\F)C(=O)N2CC[C@@H](N(C)c3nc(OC[C@@]45CCCN4C[C@H](F)C5)nc4c(F)c(-c5cccc(Cl)c5C(F)(F)F)ncc34)C2)nc(C)n1` [Compound 47], the concentration for half-maximal inhibition (IC50) was < 10 nM.
Take `COc1nc(N(C)[C@@H]2CCN(C(=O)/C(F)=C/c3cc(C)nc(C)n3)C2)c2cnc(-c3cccc4ccc(F)c(F)c34)c(F)c2n1` [Compound 48]: the 50% inhibitory concentration (IC50) is ≥ 500 nM.
In the case of `C#Cc1c(F)ccc2cccc(-c3ncc4c(N5CCN(C(=O)/C(F)=C/c6cc(C)nc(C)n6)[C@@H](CC#N)C5)nc(OC)nc4c3F)c12` [Compound 49, (S,Z)-2-(1-(3-(2,6-dimethylpyrimidin-4-yl)-2-fluoroacryloyl)-4-(7-(8-ethynyl-7-fluoronaphthalen-1-yl)-8-fluoro-2-methoxypyrido[4,3-d]pyrimidin-4-yl)piperazin-2-yl)acetonitrile], the 50% inhibitory concentration (IC50) was 100 to 500 nM.
Turning to `Cc1cc(/C=C(\F)C(=O)N2CC[C@@H](N(C)c3nc(OC[C@@H]4CCCN4C)nc4c(F)c(-c5cccc(Cl)c5C5CC5)ncc34)C2)nc(C)n1` [Compound 50], the half-inhibitory concentration (IC50) was in the range of 10 to 100 nM.
As for `Cc1cc(/C=C(\F)C(=O)N2CC[C@@H](N(C)c3nc(N4CC(N(C)C)C4)nc4c(F)c(-c5cccc(Cl)c5C5CC5)ncc34)C2)nc(C)n1` [Compound 51], the IC50 was 100 to 500 nM.
In the case of `Cc1cc(/C=C(\F)C(=O)N2CC[C@@H](N(C)c3nc(OC[C@@H]4CCCN4C)nc4c(F)c(-c5cccc6ccc(F)c(F)c56)ncc34)C2)nc(C)n1` [Compound 52] it was < 10 nM; in that of `Cc1cc(/C=C(\F)C(=O)N2CC[C@@H](N(C)c3nc(N4CC(N(C)C)C4)nc4c(F)c(-c5cccc6ccc(F)c(F)c56)ncc34)C2)nc(C)n1` [Compound 53], 10 to 100 nM; in that of `COc1nc(N2CCN(C(=O)/C(F)=C/c3cc(C)nc(C)n3)[C@@H](CC#N)C2)c2cnc(-c3cccc4ccc(F)c(Cl)c34)c(F)c2n1` [Compound 54, (S,Z)-2-(4-(7-(8-chloro-7-fluoronaphthalen-1-yl)-8-fluoro-2-methoxypyrido[4,3-d]pyrimidin-4-yl)-1-(3-(2,6-dimethylpyrimidin-4-yl)-2-fluoroacryloyl)piperazin-2-yl)acetonitrile], ≥ 500 nM.
`COc1nc(N2CCN(C(=O)/C(F)=C/c3cc(C)nc(C)n3)[C@@H](CC#N)C2)c2cnc(-c3cc(O)cc(Cl)c3C3CC3)c(F)c2n1` [Compound 55, (S,Z)-2-(4-(7-(3-chloro-2-cyclopropyl-5-hydroxyphenyl)-8-fluoro-2-methoxypyrido[4,3-d]pyrimidin-4-yl)-1-(3-(2,6-dimethylpyrimidin-4-yl)-2-fluoroacryloyl)piperazin-2-yl)acetonitrile]: the IC50 was < 10 nM.
Then `COc1nc(N(C)[C@@H]2CCN(C(=O)/C(F)=C/c3cc(C)nc(C)n3)C2)c2cnc(-c3cc(O)cc(Cl)c3C3CC3)c(F)c2n1` [Compound 56, (R,Z)-1-(3-((7-(3-chloro-2-cyclopropyl-5-hydroxyphenyl)-8-fluoro-2-methoxypyrido[4,3-d]pyrimidin-4-yl)(methyl)amino)pyrrolidin-1-yl)-3-(2,6-dimethylpyrimidin-4-yl)-2-fluoroprop-2-en-1-one], with 100 to 500 nM; and `Cc1cc(/C=C(\F)C(=O)N2CCN(c3nc(C)nc4c(F)c(-c5cc(O)cc(Cl)c5C5CC5)ncc34)C[C@@H]2CC#N)nc(C)n1` [Compound 57], with < 10 nM; and `Cc1cc(/C=C(\F)C(=O)N2CCN(c3ncnc4c(F)c(-c5cc(O)cc(Cl)c5C5CC5)ncc34)C[C@@H]2CC#N)nc(C)n1` [Compound 58], with < 10 nM.
